Several values for one entry are separate records, joined by “and”; a condition that tells them apart may be missing. Equal entries are not always repeated.
What was measured:
Details in all cases: incubation time: 72 h
[1] = system: DU-4475; assay: normalised response (% of control), CellTiter-Glo; higher = more viable cells (100 = DMSO, 0 = benzethonium chloride kill control)
Summary of the method: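 In 384-well plates holding compound at 5 concentrations in 10-fold steps over a 10,000-fold range specific to each compound, breast cancer cell lines were seeded as 20 µl suspension and incubated 72 h. CellTox Green fluorescence was measured at 485/520 nm, after which CellTiter-Glo luminescence was measured following 10 min at room temperature. Plate signals were normalised to 0.1 % DMSO (100) and a positive kill control (0), and each value is the normalised signal at a single concentration.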

[2] = system: HDQ-P1; assay: normalised viability (% of control), CellTiter-Blue; higher = more viable cells (about 100 = DMSO control)
Procedure: (§1)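 DSRT, CellTiter-Blue viability, 72 h incubation. Signal is normalised to DMSO and benzethonium chloride controls. Value is the normalised response at dose 9.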

[3] = system: CAL-51; assay: as above
Procedure: as §1

[4] = system: DU-4475; assay: as above
Procedure: as §1

[5] = system: CAL-148; assay: as above
Procedure: as §1

[6] = system: Hs578T; assay: normalised response (% of control), CellTiter-Glo; higher = more viable cells (100 = DMSO, 0 = benzethonium chloride kill control)
Procedure: (§2)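 DSRT, 72 h incubation, CellTox Green / CellTiter-Glo readout. Signal is normalised to DMSO and benzethonium chloride controls. Value is the normalised response at the highest dose.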

[7] = system: HCC1937; assay: as above
Procedure: as §2

[8] = system: HDQ-P1; assay: as above
Procedure: as §2

[9] = system: SK-BR-3; assay: as above
Procedure: as §2

[10] = system: MFM-223; assay: as above
Procedure: as §2

[11] = system: MDA-MB-453; assay: as above
Procedure: as §2

[12] = system: MCF-10A; assay: as above
Procedure: as §2

[13] = system: CAL-51; assay: as above
Procedure: as §2

[14] = system: MDA-MB-436; assay: as above
Procedure: as §2

[15] = system: CAL-120; assay: as above
Procedure: as §2

[16] = system: MDA-MB-468; assay: as above
Procedure: as §2

[17] = system: DU-4475; assay: as above; remark: listed apart in the source
Procedure: as §2

[18] = system: CAL-148; assay: as above
Procedure: as §2

[19] = system: MDA-MB-231; assay: as above
Procedure: as §2

[20] = system: BT-474; assay: as above
Procedure: as §2

[21] = system: HCC1143; assay: as above
Procedure: as §2

[22] = system: HCC1599; assay: as above
Procedure: as §2

[23] = system: CAL-85-1; assay: as above
Procedure: as §2

[24] = system: BT-549; assay: as above
Procedure: as §2

Structure (SMILES) | normalised response [1] [%] | normalised viability [2] | normalised viability [3] | normalised viability [4] | normalised viability [5] | normalised response [6] [%] | normalised response [7] [%] | normalised response [8] [%] | normalised response [9] [%] | normalised response [10] [%] | normalised response [11] [%] | normalised response [12] [%] | normalised response [13] [%] | normalised response [14] [%] | normalised response [15] [%] | normalised response [16] [%] | normalised response [17] [%] | normalised response [18] [%] | normalised response [19] [%] | normalised response [20] [%] | normalised response [21] [%] | normalised response [22] [%] | normalised response [23] [%] | normalised response [24] [%]
Cc1c(N)nc([C@H](CC(N)=O)NC[C@H](N)C(N)=O)nc1C(=O)N[C@H](C(=O)N[C@H](C)[C@@H](O)[C@H](C)C(=O)N[C@H](C(=O)NCCc1nc(-c2nc(C(=O)NCCC[S+](C)C)cs2)cs1)[C@@H](C)O)[C@@H](OC1OC(CO)C(O)C(O)C1OC1OC(CO)C(O)C(OC(N)=O)C1O)c1cnc[nH]1 (some centres not stated) [Bleomycin] (1000 nM) | 92.1 | – | – | – | – | – | – | – | – | – | – | – | – | – | – | – | – | – | – | – | – | – | – | –
Cc1c(N)nc([C@H](CC(N)=O)NC[C@H](N)C(N)=O)nc1C(=O)N[C@H](C(=O)N[C@H](C)[C@@H](O)[C@H](C)C(=O)N[C@H](C(=O)NCCc1nc(-c2nc(C(=O)NCCC[S+](C)C)cs2)cs1)[C@@H](C)O)[C@@H](OC1OC(CO)C(O)C(O)C1OC1OC(CO)C(O)C(OC(N)=O)C1O)c1cnc[nH]1 (some centres not stated) [Bleomycin] (10000 nM) | – | 64.7% | 51.7% | 98.7% | 82.8% | 69.6 | 45.8 | 78.5 | 67.4 | 108 | 124 | 53 | 37.9 | 39.1 | 80.9 | 48.8 | 78.9 | 63.3 | 74.8 | 65.3 | 48.5 | 88.7 | 64.3 | 32.6
Cc1cc2c(F)c(Oc3ncnn4cc(OC[C@@H](C)O)c(C)c34)ccc2[nH]1 [Brivanib] (100 nM) | 101 | – | – | – | – | – | – | – | – | – | – | – | – | – | – | – | – | – | – | – | – | – | – | –
Cc1cc2c(F)c(Oc3ncnn4cc(OC[C@@H](C)O)c(C)c34)ccc2[nH]1 [Brivanib] (1000 nM) | – | 117% | 101% | 107% | 86.8% | 101 | 95.1 | 97.7 | 113 | 110 | 108 | 108 | 83 | 112 | 112 | 107 | 103 | 112 | 104 | 108 | 100 | 104 | 93.4 | 98.3
CCCCCOC(=O)Nc1nc(=O)n([C@@H]2O[C@H](C)[C@@H](O)[C@H]2O)cc1F [Capecitabine] (1000 nM) | 98.6 | – | – | – | – | – | – | – | – | – | – | – | – | – | – | – | – | – | – | – | – | – | – | –
CCCCCOC(=O)Nc1nc(=O)n([C@@H]2O[C@H](C)[C@@H](O)[C@H]2O)cc1F [Capecitabine] (10000 nM) | – | 105% and 87.3% | 88.9% and 91.6% | 88.5% and 90.4% | 75.5% and 97.8% | 105 | 107 | 81.3 | 74.5 | 102 | 103 | 102 | 107 | 78.6 | 98.5 | 104 | 90.7 | 109 | 100 | 95.3 | 92.8 | 90.4 | 56 | 108

Source: the supplement of paper PMC4862054
